Paper PMC12216609, “Inhibitors of eIF1A-ribosome interaction unveil uORF-dependent regulation of translation initiation and antitumor and antiviral effects” (The EMBO Journal, 2025)
pIC50: −log10 of the molar value. “And” between values parts separate entries of the source, which are not always exact repeats. Identical values can stand only once. Like-named read-outs stand apart in the source and are kept apart here.

Experiments:
[1] = biological target: T1, eIF1A (Homo sapiens, UniProt P47813); assay type: binding; conditions: for fluorescence ratio, eIF1A: background-corrected, relative to DMSO or lowest 1Ai concentration, replicate columns; for WT eIF1A IC50: fluorescence binding
T1 construct: His-bdSUMO (cleaved yes); made in house; host or cells: E. coli BL-21
T1 sequence (P47813 whole entry): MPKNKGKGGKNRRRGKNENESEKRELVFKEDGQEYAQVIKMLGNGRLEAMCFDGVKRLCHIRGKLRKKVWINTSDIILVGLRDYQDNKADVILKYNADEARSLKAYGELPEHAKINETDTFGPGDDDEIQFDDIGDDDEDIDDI

[2] = biological target: T2, RPS10 (Homo sapiens, UniProt P46783); assay type: binding; conditions: for IC50: summary table, fluorescence binding assay, read-out: IC50 concentration (µM), RPS10
T2 construct: made in house; host or cells: E. coli BL-21

[3] = tested on: CUG/GUG vs AUG start codon luciferase reporters in HEK293T cells; test: Near-cognate AUG starting codon fidelity reporter assay (GUG, CUG vs AUG); assay type: cell-based; conditions: for average CUG and GUG / average CUG and GUG relative to DMSO / CUG Average / GUG Average: NUG experiment; for CUG Average: CUG vs AUG reporter; for GUG Average: GUG vs AUG reporter; for NUG (Final data, Fig. 1E): average CUG and GUG relative to DMSO, 20 µM overnight; for GUG vs AUG data (%) / GUG vs AUG (%) Average: compound at 20uM; for GUG vs AUG data (%): individual repeat; for GUG vs AUG (%) Average: summary average of repeats, DMSO control average […]; for CUG vs AUG (%): CUG start codon reporter relative to AUG reporter (AUG = 100); for CUG vs AUG (%) / GUG vs AUG (%): compound at 20uM (summary head), single-experiment calculation; for GUG vs AUG (%): GUG start codon reporter relative to AUG reporter (AUG = 100)
[4] = tested on: cap-proximal AUG GFP reporter in HEK293T cells; assay type: cell-based; conditions: GFP WB densitometry; 20 µM overnight; dmso 0.965946;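 note: ratio of upstream to downstream AUG initiation products on GFP Western blot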
[5] = tested on: IRF7 5'UTR firefly luciferase reporter in HEK293T cells; conditions: 20 µM; for Reference vs IRF7 (Final data, Fig. 1E): 1/Result, relative to DMSO; for LONG (summary - All), normalized to DMSO / Long: Normalized to average DMSO: Long reporter; for LONG (summary - All), normalized to DMSO / SHORT (summary - All), normalized to DMSO: individual replicates, outliers excluded, DMSO = 1; for average ( long vs short ratio): summary - All;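 for all read-outs here: luciferase signal corrected by a co-transfected GFP reporter for transfection efficiency, read after overnight compound exposure, with Long and Short reporters differing in 5'UTR length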
[6] = biological target: NSP1 (Severe acute respiratory syndrome coronavirus 2, UniProt P0DTD1)
[7] = summary table, fluorescence binding assay
[8] = data section, GFP-corrected, per experiment, includes values excluded as outliers
[9] = read-out: IC50 (line under RPS10 binding data)

O=C(CSc1nc(-c2ccccc2)cn1-c1ccccc1)NC(=O)Nc1ccccc1 [1Ai-2383]
fluorescence ratio, eIF1A ([1]; 1Ai conc. 0.25 uM): 0.9677 and 0.9798
fluorescence ratio, eIF1A ([1]; 1Ai conc. 0.5 uM): 0.9803 and 0.9815
fluorescence ratio, eIF1A ([1]; 1Ai conc. 1 uM): 1.02 and 0.9558
fluorescence ratio, eIF1A ([1]; 1Ai conc. 2 uM): 1.009 and 0.948
fluorescence ratio, eIF1A ([1]; 1Ai conc. 4 uM): 0.993 and 0.9579
fluorescence ratio, eIF1A ([1]; 1Ai conc. 8 uM): 0.9438 and 0.997
fluorescence ratio, eIF1A ([1]; 1Ai conc. 16 uM): 1.039 and 1.06
fluorescence ratio, eIF1A ([1]; 1Ai conc. 32 uM): 1.096 and 1.111
fluorescence ratio, eIF1A ([1]; 1Ai conc. 64 uM): 1.232 and 1.231
fluorescence ratio, eIF1A ([1]; 1Ai conc. 256 uM): 1.523 and 1.464
WT eIF1A IC50 [1]: No binding
IC50 concentration (µM), WT eIF1A [1, 7]: No binding
RPS10 fluorescence ratio to control ([2]; 1Ai conc. 0.25 uM): 1.003
RPS10 fluorescence ratio to control ([2]; 1Ai conc. 0.5 uM): 0.5095
RPS10 fluorescence ratio to control ([2]; 1Ai conc. 1 uM): 0.4927
RPS10 fluorescence ratio to control ([2]; 1Ai conc. 2 uM): 0.4799
RPS10 fluorescence ratio to control ([2]; 1Ai conc. 4 uM): 0.3805
RPS10 fluorescence ratio to control ([2]; 1Ai conc. 8 uM): 0.08815
RPS10 fluorescence ratio to control ([2]; 1Ai conc. 16 uM): 0.2868
RPS10 fluorescence ratio to control ([2]; 1Ai conc. 32 uM): 0.02728
RPS10 fluorescence ratio to control ([2]; 1Ai conc. 64 uM): 0.2465
RPS10 fluorescence ratio to control ([2]; 1Ai conc. 256 uM): 0.3391
pIC50 ([2]; fluorescence binding, read-out: RPS10 IC50): 6.15
pIC50 ([2]; source data Fig. 2B, read-out: IC50 (line under RPS10 binding data)): 6.18
IC50 [2]: 0.661 µM
average CUG and GUG [3]: 5.372
average CUG and GUG relative to DMSO [3]: 1.191
CUG Average [3]: 8.595
GUG Average [3]: 2.149
NUG (Final data, Fig. 1E) [3]: 1.191
GUG vs AUG data (%) [3]: 2.05% and 2.35% and 1.83% and 2.36%
GUG vs AUG (%) Average [3]: 2.15%
US/DS ratio, average [4]: 0.4898
Reference vs IRF7 (Final data, Fig. 1E) [5]: 1.265
LONG (summary - All), normalized to DMSO [5]: 0.91 and 0.57 and 0.60
SHORT (summary - All), normalized to DMSO ([5]; Short reporter): 0.93 and 0.86 and 0.76
Long: Normalized to average DMSO [5, 8]: 0.9138 and 0.5713 and 0.6011 and 0.6048
Short: Normalized to average DMSO ([5]; data section, Short reporter, GFP-corrected, per experiment, includes values excluded as outliers): 0.9324 and 0.8573 and 0.5797 and 0.7642
average ( long vs short ratio) [5]: 0.790
GFP reporter ratio nsp1/gfp, avg [6]: 0.4187
GFP reporter ratio nsp1/gfp, rep 1 [6]: 0.4187
gfp signal, mean of duplicate wells [6]: 2499.5
nsp1 signal, mean of duplicate wells [6]: 1046.5
ratio (nsp1/gfp) [6]: 0.419

Cc1ccc(C)n1-c1cc([N+](=O)[O-])ccc1N1CCN(C(=O)c2ccccc2)CC1 [1Ai-9008]
fluorescence ratio, eIF1A ([1]; 1Ai conc. 0.25 uM): 0.8521 and 1
fluorescence ratio, eIF1A ([1]; 1Ai conc. 0.5 uM): 0.8814 and 1.016
fluorescence ratio, eIF1A ([1]; 1Ai conc. 1 uM): 0.8675 and 0.9766
fluorescence ratio, eIF1A ([1]; 1Ai conc. 2 uM): 1.139 and 0.9182
fluorescence ratio, eIF1A ([1]; 1Ai conc. 4 uM): 1.153 and 0.9421
fluorescence ratio, eIF1A ([1]; 1Ai conc. 8 uM): 0.9831 and 0.8499
fluorescence ratio, eIF1A ([1]; 1Ai conc. 16 uM): 0.926 and 0.7716
fluorescence ratio, eIF1A ([1]; 1Ai conc. 32 uM): 0.9353 and 0.7367
fluorescence ratio, eIF1A ([1]; 1Ai conc. 64 uM): 1.131 and 0.7322
fluorescence ratio, eIF1A ([1]; 1Ai conc. 256 uM): 1.254 and 0.8135
WT eIF1A IC50 [1]: No binding
IC50 concentration (µM), WT eIF1A [1, 7]: No binding
RPS10 fluorescence ratio to control ([2]; 1Ai conc. 0.25 uM): 1
RPS10 fluorescence ratio to control ([2]; 1Ai conc. 0.5 uM): 0.9583
RPS10 fluorescence ratio to control ([2]; 1Ai conc. 1 uM): 0.9477
RPS10 fluorescence ratio to control ([2]; 1Ai conc. 2 uM): 0.9687
RPS10 fluorescence ratio to control ([2]; 1Ai conc. 4 uM): 0.9804
RPS10 fluorescence ratio to control ([2]; 1Ai conc. 8 uM): 0.9597
RPS10 fluorescence ratio to control ([2]; 1Ai conc. 16 uM): 0.9394
RPS10 fluorescence ratio to control ([2]; 1Ai conc. 32 uM): 1.009
RPS10 fluorescence ratio to control ([2]; 1Ai conc. 256 uM): 1.212
pIC50 [2, 9]: 5.00
pIC50 ([2]; read-out: RPS10 IC50): 5.00
IC50 [2]: 9.9 µM
CUG vs AUG (%) [3]: 13.0714%
GUG vs AUG (%) [3]: 3.675%
average CUG and GUG [3]: 8.448
average CUG and GUG relative to DMSO [3]: 1.873
CUG Average [3]: 12.6998
GUG Average [3]: 4.196
NUG (Final data, Fig. 1E) [3]: 1.873
GUG vs AUG data (%) [3]: 4.42% and 4.68% and 2.86% and 4.83%
GUG vs AUG (%) Average [3]: 4.20%
US/DS ratio, average [4]: 0.5847
Reference vs IRF7 (Final data, Fig. 1E) [5]: 0.775
LONG (summary - All), normalized to DMSO [5]: 0.81 and 0.44 and 0.52 and 0.48
SHORT (summary - All), normalized to DMSO ([5]; Short reporter): 0.66 and 0.59 and 0.24 and 0.26
Long: Normalized to average DMSO [5, 8]: 0.8135 and 0.4384 and 0.5246 and 0.4822
average ( long vs short ratio) [5]: 1.290
GFP reporter ratio nsp1/gfp, avg [6]: 0.4707
GFP reporter ratio nsp1/gfp, rep 1 [6]: 0.4454
GFP reporter ratio nsp1/gfp, rep 2 [6]: 0.4961
gfp signal, mean of duplicate wells [6]: 2743.5 and 4942
nsp1 signal, mean of duplicate wells [6]: 1361 and 2201
ratio (nsp1/gfp) [6]: 0.496 and 0.445

Cc1cc(-n2c(C)cc(-c3csc(N)n3)c2C)no1 [1Ai-6464]
fluorescence ratio, eIF1A ([1]; 1Ai conc. 0.25 uM): 0.9721 and 0.9575
fluorescence ratio, eIF1A ([1]; 1Ai conc. 0.5 uM): 1.01 and 0.9713
fluorescence ratio, eIF1A ([1]; 1Ai conc. 1 uM): 0.9857
fluorescence ratio, eIF1A ([1]; 1Ai conc. 2 uM): 0.9155
fluorescence ratio, eIF1A ([1]; 1Ai conc. 4 uM): 0.9236 and 0.8848
fluorescence ratio, eIF1A ([1]; 1Ai conc. 8 uM): 0.5527 and 0.8172
fluorescence ratio, eIF1A ([1]; 1Ai conc. 16 uM): 0.5305 and 0.7368
fluorescence ratio, eIF1A ([1]; 1Ai conc. 32 uM): 0.4838 and 0.639
fluorescence ratio, eIF1A ([1]; 1Ai conc. 64 uM): 0.4268 and 0.4798
fluorescence ratio, eIF1A ([1]; 1Ai conc. 256 uM): 0.2524 and 0.2775
pIC50 ([1]; eIF1A, from the titration data, read-out: IC50 (eIF1A titration block)): 4.67
IC50 ([1]; summary table, fluorescence binding assay, read-out: IC50 concentration (µM), WT eIF1A): 21.2 µM
RPS10 fluorescence ratio to control ([2]; 1Ai conc. 0.25 uM): 0.9293
RPS10 fluorescence ratio to control ([2]; 1Ai conc. 0.5 uM): 0.9332
RPS10 fluorescence ratio to control ([2]; 1Ai conc. 1 uM): 0.9643
RPS10 fluorescence ratio to control ([2]; 1Ai conc. 2 uM): 0.9061
RPS10 fluorescence ratio to control ([2]; 1Ai conc. 4 uM): 0.8558
RPS10 fluorescence ratio to control ([2]; 1Ai conc. 8 uM): 0.7733
RPS10 fluorescence ratio to control ([2]; 1Ai conc. 16 uM): 0.6954
RPS10 fluorescence ratio to control ([2]; 1Ai conc. 32 uM): 0.5591
RPS10 fluorescence ratio to control ([2]; 1Ai conc. 64 uM): 0.4769
RPS10 fluorescence ratio to control ([2]; 1Ai conc. 256 uM): 0.3869
pIC50 [2, 9]: 5.19
pIC50 ([2]; read-out: RPS10 IC50): 5.19
IC50 [2]: 6.4 µM
CUG vs AUG (%) [3]: 6.312%
GUG vs AUG (%) [3]: 1.439%
average CUG and GUG [3]: 3.765
average CUG and GUG relative to DMSO [3]: 0.8347
CUG Average [3]: 6.092
GUG Average [3]: 1.4368
NUG (Final data, Fig. 1E) [3]: 0.835
GUG vs AUG data (%) [3]: 1.40% and 1.10% and 1.81% and 1.45%
GUG vs AUG (%) Average [3]: 1.44%
US/DS ratio, average [4]: 0.6968
Reference vs IRF7 (Final data, Fig. 1E) [5]: 2.824
LONG (summary - All), normalized to DMSO [5]: 0.0351 and 0.33 and 0.45 and 0.34
SHORT (summary - All), normalized to DMSO ([5]; Short reporter): 0.16 and 1.35 and 0.67 and 1.06
average ( long vs short ratio) [5]: 0.354
GFP reporter ratio nsp1/gfp, avg [6]: 0.5623
GFP reporter ratio nsp1/gfp, rep 1 [6]: 0.5623
gfp signal, mean of duplicate wells [6]: 2104
nsp1 signal, mean of duplicate wells [6]: 1183
ratio (nsp1/gfp) [6]: 0.562
